Test results reported in ChEMBL document CHEMBL1128726, “N-substituted oxazolo[5,4-b]pyridin-2(1H)-ones: a new class of non-opiate antinociceptive agents” (J Med Chem, 1995).
The source made the active and inactive calls.

How the values were obtained:
Mus musculus [1] = experiment: Analgesic activity was evaluated in mice by hot plate assay and percent change in foot licking latency was determined at 16 mg/kg i.p. dose; type: functional; conditions: route intraperitoneal
Mus musculus [2] = experiment: Analgesic activity was evaluated in mice (10 mice/dose)by tail clip assay and expressed as number of protected animals upon total. Total tested was determined at 5 mg/kg p.o. dose; 5/10; type: functional, organism-based; parameters: dose 5 mg/kg
Mus musculus [3] = experiment: Inhibition of phenylquinone induced writhing in mice following 50 mg/kg p.o.; type: functional; conditions: route oral
Rattus norvegicus [4] = species on record: Rattus norvegicus; experiment: Analgesic activity against acetic acid-induced writhing in the rat compared to that of aspirin.; type: functional
Rattus norvegicus [5] = species on record: Rattus norvegicus; experiment: Antinociceptive potency against acetic acid -induced writhing in rat (8 rats/dose); type: functional
Rattus norvegicus [6] = experiment: Inhibition of acetic acid induced writhing in rat following 50 mg/kg p.o.; type: functional; conditions: route oral
Mus musculus [7] = species on record: Mus musculus; experiment: Analgesic activity against phenylquinone induced writhing in mice compared to that of aspirin.; type: functional
Mus musculus [8] = species on record: Mus musculus; experiment: Antinociceptive potency against phenylquinone (PBQ)-induced writhing in mice (8 mice/dose); type: functional
Mus musculus [9] = experiment: Analgesic activity was evaluated in mice by hot plate assay and percent change in foot licking latency was determined at 8 mg/kg i.p. dose; type: functional; conditions: route intraperitoneal
Mus musculus [10] = experiment: Mortality threshold doses was determined from orientative acute toxicity Irwin test (3 mice/dose) by peroral administration; type: organism-based; conditions: in vivo, po
Rattus norvegicus [11] = experiment: Antiinflammatory activity was evaluated by carrageenan induced rat paw edema volume was determined.; type: functional
Rattus norvegicus [12] = experiment: Antiinflammatory activity was evaluated by carrageenan induced rat paw edema (6 rats/ dose) at peroral dose of 50 mg/kg by inhibition of Prostaglandin E2 (PGE2).; type: functional; conditions: route oral
Rattus norvegicus [13] = experiment: Antiinflammatory activity was evaluated by carrageenan induced rat paw edema (6 rats/ dose) at peroral dose of 50 mg/kg by inhibition of leukotriene B4 (LTB4) synthesis.; type: functional; conditions: route oral
Rattus norvegicus [14] = experiment: Antiinflammatory activity was evaluated by carrageenan induced rat paw edema (6 rats/ dose) at peroral dose of 10 mg/kg by inhibition of leukotriene B4 (LTB4) synthesis.; type: functional; conditions: route oral
Rattus norvegicus [15] = species on record: Rattus norvegicus; experiment: animal or person; conditions: po, read-out: Inhibition
Description: Antiinflammatory activity was evaluated by carrageenan induced rat paw edema (6 rats/ dose) at peroral dose of 10 mg/kg by inhibition of Prostaglandin E2 (PGE2).

Rattus norvegicus [16] = experiment: Antiinflammatory activity was evaluated by carrageenan induced rat paw edema (6 rats/ dose) at peroral dose of 200 mg/kg and percent of variation of edema volume was determined.; type: functional; conditions: route oral
Rattus norvegicus [17] = experiment: Antiinflammatory activity was evaluated by carrageenan induced rat paw edema (6 rats/ dose) at peroral dose of 200 mg/kg by inhibition of leukotriene B4 (LTB4) synthesis.; type: functional; conditions: route oral
Rattus norvegicus [18] = experiment: Antiinflammatory activity was evaluated by carrageenan induced rat paw edema (6 rats/ dose) at peroral dose of 200 mg/kg by inhibition of Prostaglandin E2 (PGE2).; type: functional; conditions: route oral
Mus musculus [19] = experiment: Analgesic activity was evaluated in mice by hot plate assay and percent change in foot licking latency was determined at 32 mg/kg i.p. dose. p<0.05; type: functional; conditions: route intraperitoneal
Rattus norvegicus [20] = experiment: Antiinflammatory activity was evaluated by carrageenan induced rat paw edema (6 rats/ dose) at peroral dose of 100 mg/kg by inhibition of Prostaglandin E2 (PGE2).; type: functional; conditions: route oral
Rattus norvegicus [21] = experiment: Antiinflammatory activity was evaluated by carrageenan induced rat paw edema (6 rats/ dose) at peroral dose of 100 mg/kg by inhibition of leukotriene B4 (LTB4) synthesis.; type: functional; conditions: route oral
Mus musculus [22] = experiment: Mortality threshold doses was determined from orientative acute toxicity Irwin test (3 mice/dose) by peroral administration. Value in parentheses represent the percent mortality.; type: organism-based; conditions: in vivo, po
Rattus norvegicus [23] = experiment: Antiinflammatory activity was evaluated by carrageenan induced rat paw edema (6 rats/ dose) at peroral dose of 50 mg/kg and percent of variation of edema volume was determined.; type: functional; conditions: route oral
Rattus norvegicus [24] = experiment: % inhibition of acetic acid-induced writhing in rat at 1.5 mg/kg peroral dose, 120 min postdose(5 rats per compound at each time).p<0.05; type: functional; conditions: 2 h, route oral
Rattus norvegicus [25] = experiment: % inhibition of acetic acid-induced writhing in rat at 1.5 mg/kg peroral dose, 15 min postdose(5 rats per compound at each time). p<0.05; type: functional; conditions: 0.25 h, route oral
Rattus norvegicus [26] = experiment: % inhibition of acetic acid-induced writhing in rat at 1.5 mg/kg peroral dose, 180 min postdose(5 rats per compound at each time).p<0.05; type: functional; conditions: 3 h, route oral
Rattus norvegicus [27] = experiment: % inhibition of acetic acid-induced writhing in rat at 1.5 mg/kg peroral dose, 30 min postdose(5 rats per compound at each time).p<0.001; type: functional; conditions: 0.5 h, route oral
Rattus norvegicus [28] = experiment: % inhibition of acetic acid-induced writhing in rat at 1.5 mg/kg peroral dose, 360 min postdose(5 rats per compound at each time); type: functional; conditions: 6 h, route oral
Rattus norvegicus [29] = experiment: % inhibition of acetic acid-induced writhing in rat at 1.5 mg/kg peroral dose, 60 min postdose(5 rats per compound at each time).p<0.01; type: functional; conditions: 1 h, route oral
Rattus norvegicus [30] = experiment: % inhibition of acetic acid-induced writhing in rat at 30 mg/kg peroral dose, 360 min postdose(5 rats per compound at each time); type: functional; conditions: 6 h, route oral
Rattus norvegicus [31] = experiment: % inhibition of acetic acid-induced writhing in rat at 30 mg/kg peroral dose, 60 min postdose(5 rats per compound at each time); type: functional; conditions: 1 h, route oral
Rattus norvegicus [32] = experiment: % inhibition of acetic acid-induced writhing in rat at 30 mg/kg peroral dose, 15 min postdose(5 rats per compound at each time); type: functional; conditions: 0.25 h, route oral
Rattus norvegicus [33] = experiment: % inhibition of acetic acid-induced writhing in rat at 30 mg/kg peroral dose, 180 min postdose(5 rats per compound at each time); type: functional; conditions: 3 h, route oral
Rattus norvegicus [34] = experiment: % inhibition of acetic acid-induced writhing in rat at 30 mg/kg peroral dose, 30 min postdose(5 rats per compound at each time); type: functional; conditions: 0.5 h, route oral
Rattus norvegicus [35] = experiment: % inhibition of acetic acid-induced writhing in rat at 30 mg/kg peroral dose, 120 min postdose(5 rats per compound at each time); type: functional; conditions: 2 h, route oral

Row | Compound | inhibition in vivo at 50 mg/kg (Mus musculus [3]) | Activity ratio (Rattus norvegicus [4]) | ED50 (Rattus norvegicus [5]) | inhibition in vivo at 50 mg/kg (Rattus norvegicus [6]) | Activity ratio (Mus musculus [7]) | ED50 (Mus musculus [8]) | further results
1 | CN1CC[C@]23c4c5ccc(O)c4O[C@H]2[C@@H](O)C=C[C@H]3[C@H]1C5.CN1CC[C@]23c4c5ccc(O)c4O[C@H]2[C@@H](O)C=C[C@H]3[C@H]1C5.O=S(=O)(O)O | – | – | – | – | – | – | Change in foot-licking latency (Mus musculus [1]): 283%; No. of protected animals/total (Mus musculus [2]): Partially active
2 | CC(CN1CCN(c2ccc(F)cc2)CC1)Cn1c(=O)oc2ncccc21 (stereo not given) | 99% | 1.6 | 20.5 mg/kg | 100% | 1.4 | 24.6 mg/kg | –
3 | O=c1oc2ncccc2n1CCN1CCN(c2cccc3ccccc23)CC1 | 33% | 0.1 | – | 6% | 0.7 | – | –
4 | O=c1oc2ncccc2n1CCN1CCN(Cc2ccccc2)CC1 | 43% | 0.7 | – | 48% | 0.9 | – | –
5 | O=c1oc2ncccc2n1CCCCN1CCN(c2ccc(F)cc2)CC1 | 100% | 2.2 | 0.5 mg/kg | 87% | 1.9 | 2.9 mg/kg | Change in foot-licking latency (Mus musculus [9]): 113%; Mortality threshold (Mus musculus [10]): 512 mg/kg; Variation of edema volume (Rattus norvegicus [11]): -25%; inhibition in vivo at 50 mg/kg (Rattus norvegicus [12]): 2%; inhibition in vivo at 50 mg/kg (Rattus norvegicus [13]): 0%
6 | O=C(CCn1c(=O)oc2ncccc21)N1CCN(c2ccc(F)cc2)CC1 | 25% | 0.5 | – | 43% | 0.4 | – | –
7 | O=c1oc2ncccc2n1CCN1CCN(c2ccc(F)cc2)CC1 | 83% | 1.2 | 3.6 mg/kg | 85% | 1.2 | 6.7 mg/kg | –
8 | CC(CCn1c(=O)oc2ncccc21)N1CCN(c2ccc(F)cc2)CC1 (stereo not given) | 63% | 0.7 | – | 51% | 1.3 | – | –
9 | O=c1oc2ncccc2n1CCN1CCCC1 | 55% | 0.8 | – | 55% | 0.8 | – | –
10 | O=c1oc2ncccc2n1CCN1CCN(c2ccccc2)CC1 | – | – | 13.6 mg/kg | 74% | – | 25 mg/kg | –
11 | COc1ccccc1N1CCN(CCn2c(=O)oc3ncccc32)CC1 | 52% | 0.8 | – | 53% | 0.8 | – | –
12 | O=c1oc2ncccc2n1CCCCN1CCC(c2ccccc2)CC1 | 0% | 1.5 | – | 59% | 0 | – | –
13 | O=c1oc2ncccc2n1CCN1CCN(c2cccc(C(F)(F)F)c2)CC1 | 10% | 0.2 | – | 11% | 0.1 | – | –
14 | O=c1oc2ncccc2n1CCCCCN1CCN(c2ccc(F)cc2)CC1 | 100% | 1.6 | 30.4 mg/kg | 100% | 1.4 | 11.4 mg/kg | –
15 | COc1ccc2c(c1)c(CC(=O)O)c(C)n2C(=O)c1ccc(Cl)cc1 [INDOMETHACIN] | – | – | – | – | – | – | Change in volume (Rattus norvegicus [11]): -57%; inhibition in vivo at 10 mg/kg (Rattus norvegicus [14]): 18%; inhibition in vivo at 10 mg/kg (Rattus norvegicus [15]): 100%
16 | O=c1oc2ncccc2n1CCCCCCN1CCN(c2ccc(F)cc2)CC1 | 100% | 1.6 | 14.2 mg/kg | 100% | 1.4 | 7.7 mg/kg | –
17 | COc1ccc(N2CCN(CCCn3c(=O)oc4ncccc43)CC2)cc1 | 35% | 0.2 | – | 14% | 0.7 | – | –
18 | O=c1oc2ncccc2n1CCCCN1CCN(c2ccccc2)CC1 | 91% | 1.4 | 13.6 mg/kg | 96% | 1.3 | 27 mg/kg | –
19 | O=C1CCN(c2ccccc2)N1 [PHENIDONE] | – | – | – | – | – | – | Change in volume (Rattus norvegicus [16]): -68%; inhibition in vivo at 200 mg/kg (Rattus norvegicus [17]): 100%; inhibition in vivo at 200 mg/kg (Rattus norvegicus [18]): 100%
20 | O=c1oc2ncccc2n1CCCN1CCN(c2ccccc2)CC1 | 98% | 1.3 | 3.3 mg/kg | 92% | 1.4 | 12.7 mg/kg | Change in foot-licking latency (Mus musculus [19]): 30%; Mortality threshold (Mus musculus [10]): > 1024 mg/kg; Change in volume (Rattus norvegicus [11]): -20%; inhibition in vivo at 100 mg/kg (Rattus norvegicus [20]): 5%; inhibition in vivo at 100 mg/kg (Rattus norvegicus [21]): 35%
21 | O=c1oc2ncccc2n1CCCN1CCN(c2ccc(F)cc2)CC1 | 85% | 2 | 0.5 mg/kg | 79% | 1.6 | 5.6 mg/kg | Change in foot-licking latency (Mus musculus [19]): 87%; Mortality threshold (Mus musculus [22]): 1024 mg/kg; Change in volume (Rattus norvegicus [23]): -11%; inhibition in vivo at 1.5 mg/kg (Rattus norvegicus [24]): 63%; inhibition in vivo at 1.5 mg/kg (Rattus norvegicus [25]): 47%; inhibition in vivo at 1.5 mg/kg (Rattus norvegicus [26]): 44%; inhibition in vivo at 1.5 mg/kg (Rattus norvegicus [27]): 65%; inhibition in vivo at 1.5 mg/kg (Rattus norvegicus [28]): 4%; inhibition in vivo at 50 mg/kg (Rattus norvegicus [12]): -5%; inhibition in vivo at 50 mg/kg (Rattus norvegicus [13]): 16%; inhibition in vivo at 1.5 mg/kg (Rattus norvegicus [29]): 50%
22 | O=c1oc2ncccc2n1CCN1CCC(c2ccccc2)CC1 | 9% | 0.7 | – | 50% | 0.1 | – | –
23 | O=c1oc2ncccc2n1CCCN1CCN(c2cccc3ccccc23)CC1 | 44% | 0 | – | 0% | 0.9 | – | –
24 | O=c1oc2ncccc2n1CCCN1CCN(Cc2ccccc2)CC1 | 14% | 0.2 | – | 12% | 0.3 | – | –
25 | CC(=O)Oc1ccccc1C(=O)O [ASPIRIN] | – | – | 32 mg/kg | – | – | 63 mg/kg | inhibition in vivo at 30 mg/kg (Rattus norvegicus [30]): 0%; inhibition in vivo at 30 mg/kg (Rattus norvegicus [31]): 60%; inhibition in vivo at 30 mg/kg (Rattus norvegicus [32]): 53%; inhibition in vivo at 30 mg/kg (Rattus norvegicus [33]): 18%; inhibition in vivo at 30 mg/kg (Rattus norvegicus [34]): 37%; inhibition in vivo at 30 mg/kg (Rattus norvegicus [35]): 26%
26 | O=c1oc2ncccc2n1CCCN1CCOCC1 | 48% | 0 | – | 0% | 0.9 | – | –
